In ChEMBL document CHEMBL3351699, “Diarylthiazole: an antimycobacterial scaffold potentially targeting PrrB-PrrA two-component system” (J Med Chem, 2014):
Converted amounts (≈) assume the structure as drawn. The source made the active and inactive calls. No cut-off for these calls is given here.

Columns and labels:
Type in all cases: functional
[1] = system: Mycobacterium tuberculosis; assay: Antimicrobial activity against clinical isolate Rifampin-resistant Mycobacterium tuberculosis assessed as growth inhibition after 7 days by turbidometry; settings: 168 h
[2] = system: Mycobacterium tuberculosis; assay: Antimicrobial activity against clinical isolate Isoniazid-resistant Mycobacterium tuberculosis assessed as growth inhibition after 7 days by turbidometry; settings: 168 h
[3] = system: Mycobacterium tuberculosis; assay: Antimicrobial activity against first mutant generation Mycobacterium tuberculosis 1024_1 assessed as fold shift in MIC relative to parent strain
[4] = system: Mycobacterium tuberculosis; assay: Antimicrobial activity against first mutant generation Mycobacterium tuberculosis 1024_18 assessed as fold shift in MIC relative to parent strain
[5] = system: Mycobacterium tuberculosis; assay: Antimicrobial activity against second mutant generation Mycobacterium tuberculosis 1024_16.6 assessed as fold shift in MIC relative to parent strain
[6] = system: Mycobacterium tuberculosis; assay: Antimicrobial activity against second mutant generation Mycobacterium tuberculosis 1024_16.5 assessed as fold shift in MIC relative to parent strain
[7] = system: Mycobacterium tuberculosis; assay: Antimicrobial activity against Mycobacterium tuberculosis H37Rv over-expressing InhA cells assessed as upshift of MIC relative to wild type
[8] = system: Mycobacterium tuberculosis; assay: Antimicrobial activity against second mutant generation Mycobacterium tuberculosis 1024_8.12 assessed as fold shift in MIC relative to parent strain
[9] = system: Mycobacterium tuberculosis; assay: Antimicrobial activity against second mutant generation Mycobacterium tuberculosis 1024_18 assessed as fold shift in MIC relative to parent strain

| SMILES | MIC80 [1] [µg/mL] | MIC80 [2] [µg/mL] | Ratio [3] | Ratio [4] | Ratio [5] | Ratio [6] | Activity [7] | Ratio [8] | Ratio [9] | fold change (FC) [7] |
| --- | --- | --- | --- | --- | --- | --- | --- | --- | --- | --- |
| CCCc1cc(-c2nc(-c3ccc(OCC4CC4)cc3)cs2)ccn1 | 0.13 (≈ 0.371 µM) | 1 (≈ 2.85 µM) |  |  |  |  |  |  |  |  |
| CCCc1cc(-c2nc(-c3ccncc3)cs2)ccn1 |  |  | 16 | 8 | 16 | 16 | Active | 8 | 8 |  |
| CCCc1cc(-c2nc(-c3cccc(OC)c3)cs2)ccn1 | 0.5 (≈ 1.61 µM) | 1 (≈ 3.22 µM) |  |  |  |  |  |  |  |  |
| CCCc1cc(-c2nc(-c3ccc(OCCN4CCOCC4)cc3)cs2)ccn1 | 0.5 (≈ 1.22 µM) | 1 (≈ 2.44 µM) |  |  | >8 | 4 |  | 8 | 8 |  |
| CCCc1cc(-c2nc(-c3ccccn3)cs2)ccn1 |  |  |  |  |  |  | Active |  |  |  |
| CO[C@H]1/C=C/O[C@@]2(C)Oc3c(C)c(O)c4c(O)c(c(/C=N/N5CCN(C)CC5)c(O)c4c3C2=O)NC(=O)/C(C)=C\C=C\[C@H](C)[C@H](O)[C@@H](C)[C@@H](O)[C@@H](C)[C@H](OC(C)=O)[C@@H]1C [RIFAMPIN] | > 16 | 0.003 (≈ 0.00365 µM) | 0.5 | 0.5 |  |  |  |  |  |  |
| CC(=O)NC[C@H]1CN(c2ccc(N3CCOCC3)c(F)c2)C(=O)O1 [LINEZOLID] |  |  | 1 | 1 |  |  |  |  |  |  |
| Oc1cc(Cl)ccc1Oc1ccc(Cl)cc1Cl [TRICLOSAN] |  |  |  |  |  |  |  |  |  | 8 |
| COc1nc2ccc(Br)cc2cc1[C@@H](c1ccccc1)[C@@](O)(CCN(C)C)c1cccc2ccccc12 [BEDAQUILINE] |  |  | 1 | 0.5 | 0.5 | 0.5 |  | 0.25 | 0.25 |  |
| COc1c(N2C[C@@H]3CCCN[C@@H]3C2)c(F)cc2c(=O)c(C(=O)O)cn(C3CC3)c12 [MOXIFLOXACIN] |  |  | 1 | 1 | 1 | 1 |  | 1 | 0.5 |  |
| CCCc1cc(-c2nc(-c3ccc(C)cc3)cs2)ccn1 [FATOSTATIN] |  |  | 8 | 16 | >32 | 16 | Active | 16 | 16 |  |
| NNC(=O)c1ccncc1 [ISONIAZID] | 0.03 (≈ 0.219 µM) | > 16 | 1 | 1 | 1 | 1 |  | 1 | 1 | 8 |
| CCCc1cc(-c2csc(-c3ccnc(CCC)c3)n2)ccn1 |  |  |  |  |  |  | Active |  |  |  |
| CCc1cc(C(N)=S)ccn1 [ETHIONAMIDE] |  |  |  |  |  |  |  |  |  | 8 |
| CCCc1cc(-c2nc(-c3ccc(NS(C)(=O)=O)cc3)cs2)ccn1 | 0.13 (≈ 0.348 µM) | 0.5 (≈ 1.34 µM) |  |  |  |  |  |  |  |  |
| CCCc1cc(-c2nc(-c3ccnc(OCC)c3)cs2)ccn1 |  |  |  |  |  |  | Active |  |  |  |
